In US9260710B2, “Photocleavable linker” (City of Hope, priority 2012, dated 2016):

Experiments:
[1] = biological target: T1, LC8 (Homo sapiens, UniProt P63167); assay: Defective mitotic spindle morphology; type: cell-based; settings: transfected cells
T1 construct: we monitored the distribution of Golgi in cells subjected to LC8 RNAi; endogenous in cells
Procedure: As a test for effects on cytoplasmic dynein functions that are distinct from vesicular transport, we monitored mitotic behavior in cells expressing either the LC8- or TcTex1-traps. We observed little effect on either mitotic index or the fraction of mitotic cells at discrete mitotic stages with either trap (data not shown). […] Finally, similar studies were carried out using the IC trap. As before, we observed little or no change in the dispersion of endosomes and Golgi apparatus before AP20187 treatment. Induction of dimerization through the addition of AP20187 (1 μM) produced immediate changes in both organelles. After 4 h, 81+4% of cells contained dispersed endosomes and 68+3% of cells contained dispersed Golgi. […] The precise reason for this difference is not clear; however, currently, we attribute this to a change in the cytoskeleton, but this must still be verified. We are also in the process of measuring the effect of sequestering the dynein IC on mitotic behavior.

[2] = test system: TcTex1; assay: Trap specificity by native PAGE, TcTex1; type: binding; settings: with or without AP20187 treatment
Excerpt: In addition, there is no evidence that LC8 can bind proteins bearing a TcTex1 sequence or vice versa (e.g., LC8 binds to BimEL, Pak1, nNOS, etc.; TcTex1 binds to Doc2α, PTHR receptor, etc.50).

[3] = test system: GFP-LC8 trap transfected Cos1/Cos7 cells; assay: Organelle dispersion and microtubule array in cells expressing the LC8 trap; type: cell-based; settings: expression of the trap alone, no AP20187
Excerpt: In vivo effect of Dynein LC and IC Traps. As tests for LC function, we evaluated the effects of the traps on early endosome, lysosome, and Golgi distribution, as well as mitotic progression. First, we fused green fluorescent protein (GFP) to the N-terminus of both FKBP-traps to identify transfected cells. Next, we transfected Cos1, Cos7, or HeLa cells with either trap or a GFP-FKBP control and labeled endosomes, lysosomes and Golgi with EEA1, LAMP2 and GM130 markers, respectively (FIGS. 12A-12C). […] The percentage of cells expressing the GFPLC8 or GFP-TcTex1 trap with dispersed endosomes was 14.7±1.5% and 13.3±1.5%, respectively, as compared to 11.7±3.5% and 10.3±3.5% for non-transfected cells and cells that expressed a GFP-FKBP control, respectively. […] After 8 h of treatment with AP20187, we observed greater than 50% dispersion of the three organelle types for each trap.
To ensure the AP20187 concentration was not limiting, we followed the LC8-trap-induced dispersion of lysosomes as a function of AP20187 concentration after 8 h. […] For the TcTex1-trap, we observed efficient endosome, lysosome and Golgi dispersion at AP20187 concentrations of 1 μM or greater.
Kinetic Analysis Separates Dynein Functions. A major purpose for developing these traps is to provide immediate inhibition of protein function and follow the cellular response from this perturbation to gain new insight. Thus, we monitored the fraction of cells with dispersed organelles as a function of time. After induction of dimerization by AP20187, effects on both early endosome and lysosome distribution were detectable at 10 min, and leveled off at ˜2 h (FIGS. 14A-14B). […] The most rapid effect was observed on lysosomes in cells expressing the LC8 trap. In striking contrast, Golgi dispersal using either trap occurred over a much longer time-course, requiring 8 h after induction of dimerization to reach similar levels of dispersion as for endosomes and lysosomes. Twenty-four hours after addition of AP20187, the percentage of cells with dispersed Golgi reached levels greater than 85%.

T1 sequence (P63167 whole entry): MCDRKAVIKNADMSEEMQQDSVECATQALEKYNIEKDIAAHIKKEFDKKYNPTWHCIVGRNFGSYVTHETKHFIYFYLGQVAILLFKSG

Row | Substance | defective mitotic spindle morphology [1] | binding to TcTex1 [2] | percentage of cells with dispersed endosomes [3] [%]
1 | LC8-trap: LC8 binding region of the dynein IC (residues 125-137, rat IC2C) fused to the C-terminus of FKBP | 20+2% | does not bind | –
2 | GFPLC8: green fluorescent protein fused to the N-terminus of the FKBP LC8-trap | – | – | 14.7±1.5
